In patent US10918741B2, “PSMA-targeting imaging agents” (THE CLEVELAND CLINIC FOUNDATION, priority 2014, dated 2021):
Entries after “also recorded” stand apart in the source; their conditions may differ. Primed or numbered codes have the meaning given here. Where no end group is shown, it is not given here. [ ]: non-standard residue; d: D form. Amc = N-aminomethyl cyclohexanoic acid; Ahx = NCCCCCC(=O)O; E′E = Glu-urea-Glu

What was measured:
[1] = cited from earlier work
[2] = hematological, biochemistry, and histopathological analyses; cited from earlier work
[3] = tested on: PC3-PIP (PSMA+) and PC3-flu (PSMA−) tumor xenographs; assay: SPECT/CT imaging of [^99mTc]3; assay type: in vivo, mice; settings: 4 hours after tail vein injection
Description: (§1) Male NOD scid gamma (NSG) mice bearing PC3-PIP (PSMA+) and PC3-flu (PSMA−) tumor xenographs were used for imaging. The mice were injected with 3 mCi of [^99mTc]3. Four hours after tracer injection, SPECT/CT images were acquired using a high-resolution multi-pinhole SPECT with collimation insert with a clinical SPECT/CT scanner (Symbia T6, Siemens Molecular Imaging). DiFilippo, F. P. Phys Med Biol 53(15): 4185-4201 (2008). For the biodistribution study without imaging, male NSG mice bearing two PC3-PIP tumors were injected with 50-100 µCi of [^99mTc]3. Mice were sacrificed at 2 hours, 4 hours and 6 hours after injection. After thoracotomy, blood was first withdrawn from the heart, then the organs were resected en-block. The activities were counted with a Perkin Elmer 2480 Automatic Gamma Counter. The decay corrected percent injected dose per gram of organ weight (wet) (% ID/g) was calculated.

[4] = assay type: physicochemical
Description: Labeling with technetium typically yields 95% radiochemical purity after SepPak purification. […] The kidneys and bladder are the most prominent organs on the images, because PSMA is expressed naturally in mouse kidneys and because it is a renally excreted compound. […] Tumor uptake is 6.0±1.6% at 2 hours, 6.0±2.2% at 4 hours and 5.7%±2.5% at 6 hours (Table 2). […] This is likely related to residual pertechnetate after cartridge purification and dissociation of technetium from the chelate.

PC3-PIP tumors = tested on: PC3-PIP tumors; parameters: species or system mice; settings: mouse, in vivo
Description: as §1

Row | Molecule | water solubility in words [1] | toxicity in words [2] | SPECT/CT imaging result in words [3] | stability under solvent conditions for HPLC [4] | radioactivity in the stomach (PC3-PIP tumors) [% ID/g] | radioactivity in the thyroid (PC3-PIP tumors) [% ID/g]
1 | CC1(C)C(=CC=C2CCCC(C=CC3=[N+](CCCCCC(=O)[O-])c4ccc(S(=O)(=O)[O-])cc4C3(C)C)=C2Oc2ccc(S(=O)(=O)[O-])cc2)N(CCCCS(=O)(=O)[O-])c2ccc(S(=O)(=O)[O-])cc21.[Na+].[Na+].[Na+].[Na+] [IRDye 800CW] | highly water soluble | no pathologic evidence of toxicity | – | – | – | –
2 | ^99mTc-E′EAmc-Ahx-dEdEdEGYGGGC ({E′E-Amc}-[Ahx][dE][dE][dE]GYGGGC; not fully specified (C-terminus); also: 99mTc chelated (N3S1)) [[^99mTc]3, Tc99m labeled compound 3] | – | – | specific targeting of PSMA+PC3-PIP tumors with no significant binding to PC3-flu tumors; also recorded: near background tracer uptake in the PSMA negative tumors, liver, lung, heart and spleen | not stable | 0.2 | 0.3
